Results reported in patent US7126027B2, “N-[(1-dimethylaminocycloalkyl)methyl]benzamide derivatives” (Akzo Nobel N.V., priority 2002, dated 2006).

Columns and labels:
hGlyT-2 = molecular target: T1, hGlyT-2 (Homo sapiens, UniProt Q9Y345); assay: Glycine uptake assay, CHO cells stably transfected with hGlyT-2; type: cell-based; conditions: [3H]-glycine 30 μM, 37° C., 10 minutes, read-out: Inhibition of glycine transport by hGlyT-2 IC50
T1 construct: expressed in transfected cells
T1 sequence (Q9Y345 1-797): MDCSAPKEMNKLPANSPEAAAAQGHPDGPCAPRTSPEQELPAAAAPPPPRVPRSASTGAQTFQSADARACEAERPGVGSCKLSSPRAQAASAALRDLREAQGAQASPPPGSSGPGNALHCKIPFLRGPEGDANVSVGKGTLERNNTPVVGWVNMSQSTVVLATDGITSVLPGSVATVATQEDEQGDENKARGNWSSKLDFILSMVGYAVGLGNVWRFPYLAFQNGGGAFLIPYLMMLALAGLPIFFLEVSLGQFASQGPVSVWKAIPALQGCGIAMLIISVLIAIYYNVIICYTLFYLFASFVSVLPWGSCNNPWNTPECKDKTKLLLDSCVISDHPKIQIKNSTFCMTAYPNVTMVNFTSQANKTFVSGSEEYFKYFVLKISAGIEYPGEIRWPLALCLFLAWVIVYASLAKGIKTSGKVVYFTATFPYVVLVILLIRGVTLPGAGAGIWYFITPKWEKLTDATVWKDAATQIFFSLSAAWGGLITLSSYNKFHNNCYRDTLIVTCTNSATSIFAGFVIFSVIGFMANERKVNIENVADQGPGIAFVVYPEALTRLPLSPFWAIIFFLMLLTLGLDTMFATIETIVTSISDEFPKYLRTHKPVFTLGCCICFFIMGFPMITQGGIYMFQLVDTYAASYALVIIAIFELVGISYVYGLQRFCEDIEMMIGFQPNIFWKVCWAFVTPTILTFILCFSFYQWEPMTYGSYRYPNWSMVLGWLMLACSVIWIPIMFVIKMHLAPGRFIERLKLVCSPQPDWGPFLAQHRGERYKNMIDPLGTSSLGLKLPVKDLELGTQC
Method: Glycine uptake assays were performed as described by Morrow et al. (FEBS Lett. 1998, 439, 334–340) using CHO cells stably transfected with either hGlyT-1b or hGlyT-2. Cells were grown in 96 well microtitre plates (30,000 cells/well) for 24–48 hours before removal of culture medium and addition of Hanks Balanced Salt Solution (HBSS) containing [^3H]-glycine (30 μM) and varying concentrations of test compounds. Plates were incubated at 37° C. for 10 minutes and uptake terminated by washing three times with ice-cold HBSS. After removal of excess liquid, scintillation cocktail was added to each well, prior to counting in a plate counter. Data were analysed using the GraphPad Prism™ analysis package and the sigmoid dose-response curve fitting option to produce IC50 (the concentration of test compound producing 50% inhibition of uptake) values.

rats = assay: Chung model of neuropathy (L5 spinal nerve ligation, von Frey withdrawal threshold); type: in vivo, rat; conditions: twenty minutes after subcutaneous injection; Example 2 20 mg/kg, morphine sulphate 2 mg/kg, gabapentin 50 mg/kg; post-surgery pre-drug 0.8±0.1 g

| Compound | IC50 (hGlyT-2) [nM] | Withdrawal threshold (rats) [g] |
| --- | --- | --- |
| COc1cc(C(=O)NCC2(N(C)C)CCCCC2)cc(OC)c1OCc1ccccc1 [Example 5, 4-Benzyloxy-3,5-dimethoxy-N-[(1-dimethylaminocyclohexyl)methyl]benzamide] | 84 | – |
| CCCCOc1c(OC)cc(C(=O)NCC2(N(C)C)CCCC2)cc1OC [Example 7, 4-n-Butyloxy-3,5-dimethoxy-N-[(1-dimethylaminocyclopentyl)methyl]benzamide] | 77 | – |
| Cc1cc(C(=O)NCC2(N(C)C)CCCC2)cc(C)c1OCc1ccsc1 [Example 20, 3,5-Dimethyl-4-(3-thienyl)methoxy-N-[(1-dimethylaminocyclopentyl)methyl]benzamide] | 32 | – |
| COc1cc(C(=O)NCC2(N(C)C)CCCC2)cc(OC)c1OCc1ccc(C(F)(F)F)cc1 [Example 14, 3,5-Dimethoxy-4-(4-trifluoromethylbenzyloxy)-N-[(1-dimethylaminocyclopentyl)methyl]benzamide] | 76 | – |
| COc1cc(C(=O)NCC2(N(C)C)CCCC2)cc(OC)c1OCc1ccccc1 [Example 2, 4-Benzyloxy-3,5-dimethoxy-N-[1-(dimethylaminocyclopentyl)methyl]benzamide] | – | 4.7 ± 1.15 |
| COc1cc(C(=O)NCC2(N(C)C)CCCC2)cc(OC)c1OCC(C)C [Example 15, 3,5-Dimethoxy-4-(2-methylpropoxy)-N-[(1-dimethylaminocyclopentyl)methyl]benzamide] | 79 | – |
| Cc1cc(C(=O)NCC2(N(C)C)CCCCCC2)cc(C)c1OCc1ccccc1 [Example 16, 4-Benzyloxy-3,5-dimethyl-N-[(1-dimethylaminocycloheptyl)methyl]benzamide] | 92 | – |
| COc1cc(C(=O)NCC2(N(C)C)CCCC2)cc(OC)c1OCc1cccc2ccccc12 [Example 19, 3,5-Dimethoxy-4-(1-naphthyl)methoxy-N-[(1-dimethylaminocyclopentyl)methyl]benzamide] | 215 | – |
| Cc1cc(C(=O)NCC2(N(C)C)CCCC2)cc(C)c1OCc1ccccc1 [Example 9, 4-Benzyloxy-3,5-dimethyl-N-[(1-dimethylaminocyclopentyl)methyl]benzamide] | 27 | – |
| COc1cc(C(=O)NCC2(N(C)C)CCCCC2)cc(OC)c1OCC1CCCCC1 [Example 13, 4-(Cyclohexylmethoxy)-3,5-dimethoxy-N-[(1-dimethylaminocyclohexyl)methyl]benzamide] | 71 | – |
| Cc1cc(C(=O)NCC2(N(C)C)CCC2)cc(C)c1OCc1ccccc1 [Example 8, 4-Benzyloxy-3,5-dimethyl-N-[1-(dimethylaminocyclobutyl)methyl]benzamide] | 16 | – |
| COc1cc(C(=O)NCC2(N(C)C)CCCC2)cc(OC)c1OCc1ccc(Cl)cc1 [Example 12, 4-(4-Chloro)benzyloxy-3,5-dimethoxy-N-[1-(dimethylaminocyclopentyl)methyl]benzamide] | 44 | – |
| COc1cc(C(=O)NCC2(N(C)C)CCCC2)cc(OC)c1OC1CCCC1 [Example 21, 4-Cyclopentyloxy-3,5-dimethoxy-N-[(1-dimethylaminocyclopentyl)methyl]benzamide] | 329 | – |
| COc1cc(C(=O)NCC2(N(C)C)CCCC2)cc(OC)c1OCCc1ccccc1 [Example 18, 3,5-Dimethoxy-4-(2-phenylethoxy)-N-[(1-dimethylaminocyclopentyl)methyl]benzamide] | 156 | – |
| COc1cc(C(=O)NCC2(N(C)C)CCCC2)cc(OC)c1OCc1ccc(C)cc1 [Example 10, 3,5-Dimethoxy-4-(4-methylbenzyloxy)-N-[(1-dimethylaminocyclopentyl)methyl]benzamide] | 30 | – |
| COc1cc(C(=O)NCC2(N(C)C)CCCC2)cc(OC)c1OC(C)c1ccccc1 (stereo not drawn) [Example 11, 3,5-Dimethoxy-4-(1-phenyl)ethoxy-N-[1-(dimethylaminocyclopentyl)methyl]benzamide] | 35 | – |
| CN1CC[C@]23c4c5ccc(O)c4O[C@H]2[C@@H](O)C=C[C@H]3[C@H]1C5.O=S(=O)(O)O [morphine, morphine sulphate] | – | 4.2 ± 1.5 |
| NCC1(CC(=O)O)CCCCC1 [gabapentin] | – | 3.2 ± 1.5 |
